{"source": "paper PMC4503722", "about": "“Novel Phenotypic Outcomes Identified for a Public Collection of Approved Drugs from a Publicly Accessible Panel of Assays” (PLoS ONE, 2015);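 as to 5mMGluc INS1E SecretionMod IC50/EC50: secreted insulin quantified by homogeneous immunoassay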;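 as to IC50/EC50, 5mMGluc INS1E SecretionMod (assay number 8): secreted insulin quantified by homogeneous immunoassay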", "key": {"INS-1E cells [1]": {"system": "INS-1E cells", "format": "cell-based, rat", "details": "assay number 9; 0.1 mM glucose"}, "INS-1E cells [2]": {"system": "INS-1E cells", "assay": "cells", "format": "cell-based, rat", "details": "5 mM glucose; for 5mMGluc_INS1E SecretionMod IC50/EC50: assay number 8"}, "DLD-1": {"system": "DLD-1", "assay": "cells", "format": "cell-based", "details": "basal"}, "[3]": {"system": "alkaline phosphatase (ALP) activity in C2C12 cells", "format": "cell-based", "details": "concentration response"}, "hFLT3": {"target": "T1, hFLT3 (Homo sapiens, UniProt P36888)", "T1 construct": "purchased Cerep (LANCE kinase assay platform, contract assay)", "T1 sequence (P36888 27-993)": "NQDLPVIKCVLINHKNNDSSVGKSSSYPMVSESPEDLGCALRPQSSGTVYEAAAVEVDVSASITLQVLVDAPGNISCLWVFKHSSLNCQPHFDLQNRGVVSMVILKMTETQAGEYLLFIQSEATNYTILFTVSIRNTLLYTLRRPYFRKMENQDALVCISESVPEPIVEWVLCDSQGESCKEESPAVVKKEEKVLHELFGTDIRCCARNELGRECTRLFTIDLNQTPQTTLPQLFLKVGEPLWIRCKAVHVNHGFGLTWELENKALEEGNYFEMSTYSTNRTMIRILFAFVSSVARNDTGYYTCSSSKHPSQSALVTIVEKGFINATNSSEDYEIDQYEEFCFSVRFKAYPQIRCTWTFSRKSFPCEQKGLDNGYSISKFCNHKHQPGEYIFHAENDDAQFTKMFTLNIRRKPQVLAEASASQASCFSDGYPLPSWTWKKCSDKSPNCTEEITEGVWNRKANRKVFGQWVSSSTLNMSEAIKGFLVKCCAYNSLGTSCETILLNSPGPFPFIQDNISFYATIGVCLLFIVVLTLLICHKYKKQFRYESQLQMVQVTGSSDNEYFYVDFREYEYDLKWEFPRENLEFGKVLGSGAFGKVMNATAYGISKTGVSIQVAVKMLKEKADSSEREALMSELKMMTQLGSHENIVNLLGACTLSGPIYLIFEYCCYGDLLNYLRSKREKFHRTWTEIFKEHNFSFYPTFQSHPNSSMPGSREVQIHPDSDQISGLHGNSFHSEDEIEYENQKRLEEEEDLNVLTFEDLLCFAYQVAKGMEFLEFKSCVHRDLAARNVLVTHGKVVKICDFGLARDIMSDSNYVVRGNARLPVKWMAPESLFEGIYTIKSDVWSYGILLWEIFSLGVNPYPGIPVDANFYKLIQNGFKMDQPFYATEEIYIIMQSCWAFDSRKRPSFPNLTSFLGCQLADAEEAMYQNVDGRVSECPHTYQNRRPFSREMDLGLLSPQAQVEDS", "assay": "Cerep LANCE kinase assay hFLT3 (S1 assay 35)", "format": "biochemical"}, "HT-29": {"system": "HT-29", "assay": "cells", "format": "cell-based", "details": "basal"}, "SNU-C1": {"system": "SNU-C1", "assay": "cells", "format": "cell-based", "details": "basal"}, "HeLa cells": {"system": "HeLa cells", "assay": "cells", "format": "cell-based"}, "HCT116": {"system": "HCT116", "assay": "cells", "format": "cell-based", "details": "basal"}, "hGSK3b": {"target": "T2, hGSK3b (Homo sapiens, UniProt P49841)", "T2 construct": "purchased Cerep (LANCE kinase assay platform, contract assay)", "T2 sequence (P49841 whole entry)": "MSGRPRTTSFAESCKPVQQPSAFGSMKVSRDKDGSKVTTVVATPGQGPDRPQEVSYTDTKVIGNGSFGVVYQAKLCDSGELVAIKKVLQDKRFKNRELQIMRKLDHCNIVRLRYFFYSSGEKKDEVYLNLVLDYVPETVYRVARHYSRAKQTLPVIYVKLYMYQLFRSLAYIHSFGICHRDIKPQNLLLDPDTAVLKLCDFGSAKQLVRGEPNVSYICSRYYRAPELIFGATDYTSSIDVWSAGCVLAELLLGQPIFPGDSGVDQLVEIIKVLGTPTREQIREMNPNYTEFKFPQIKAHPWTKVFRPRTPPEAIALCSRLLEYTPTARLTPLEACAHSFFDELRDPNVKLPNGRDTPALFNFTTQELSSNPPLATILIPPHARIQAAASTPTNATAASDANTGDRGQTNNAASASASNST", "assay": "Cerep LANCE kinase assay hGSK3b (S1 assay 34)", "format": "biochemical"}, "[4]": {"system": "endothelial tube formation in co-cultures of ECFCs and ADSCs treated with VEGF", "assay": "cells", "format": "cell-based, human"}, "hp70S6K1 (RPS6KB1)": {"target": "T3, hp70S6K1 (RPS6KB1) (Homo sapiens, UniProt P23443)", "T3 construct": "purchased Cerep (LANCE kinase assay platform, contract assay)", "T3 sequence (P23443 whole entry)": "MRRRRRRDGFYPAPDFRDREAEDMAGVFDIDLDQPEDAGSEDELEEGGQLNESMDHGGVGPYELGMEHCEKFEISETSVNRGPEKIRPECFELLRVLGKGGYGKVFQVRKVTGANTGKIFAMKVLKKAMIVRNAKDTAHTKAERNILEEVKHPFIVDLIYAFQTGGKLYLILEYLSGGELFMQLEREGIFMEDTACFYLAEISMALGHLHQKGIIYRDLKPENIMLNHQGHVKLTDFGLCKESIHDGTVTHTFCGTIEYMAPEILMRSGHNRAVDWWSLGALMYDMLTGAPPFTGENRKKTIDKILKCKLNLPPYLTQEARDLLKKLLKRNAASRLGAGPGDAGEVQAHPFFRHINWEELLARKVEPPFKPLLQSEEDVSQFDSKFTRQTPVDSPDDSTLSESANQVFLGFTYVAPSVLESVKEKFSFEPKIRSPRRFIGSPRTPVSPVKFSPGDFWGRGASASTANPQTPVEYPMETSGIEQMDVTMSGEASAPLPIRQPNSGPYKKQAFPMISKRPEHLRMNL", "assay": "Cerep LANCE kinase assay hp70S6K1 (S1 assay 31)", "format": "biochemical"}, "[5]": {"system": "ECFC/ADSC co-culture cell nuclei number"}, "Colo320": {"system": "Colo320", "assay": "cells", "format": "cell-based", "details": "basal"}, "NCI-H716 cells": {"system": "NCI-H716 cells", "assay": "cells", "format": "cell-based, Human", "details": "concentration response"}, "[6]": {"system": "nuclear β-catenin in C2C12 cells", "assay": "cells", "format": "cell-based", "details": "concentration response"}, "hKDR": {"target": "T4, hKDR (Homo sapiens, UniProt P35968)", "T4 construct": "purchased Cerep (LANCE kinase assay platform, contract assay)", "T4 sequence (P35968 20-1356)": "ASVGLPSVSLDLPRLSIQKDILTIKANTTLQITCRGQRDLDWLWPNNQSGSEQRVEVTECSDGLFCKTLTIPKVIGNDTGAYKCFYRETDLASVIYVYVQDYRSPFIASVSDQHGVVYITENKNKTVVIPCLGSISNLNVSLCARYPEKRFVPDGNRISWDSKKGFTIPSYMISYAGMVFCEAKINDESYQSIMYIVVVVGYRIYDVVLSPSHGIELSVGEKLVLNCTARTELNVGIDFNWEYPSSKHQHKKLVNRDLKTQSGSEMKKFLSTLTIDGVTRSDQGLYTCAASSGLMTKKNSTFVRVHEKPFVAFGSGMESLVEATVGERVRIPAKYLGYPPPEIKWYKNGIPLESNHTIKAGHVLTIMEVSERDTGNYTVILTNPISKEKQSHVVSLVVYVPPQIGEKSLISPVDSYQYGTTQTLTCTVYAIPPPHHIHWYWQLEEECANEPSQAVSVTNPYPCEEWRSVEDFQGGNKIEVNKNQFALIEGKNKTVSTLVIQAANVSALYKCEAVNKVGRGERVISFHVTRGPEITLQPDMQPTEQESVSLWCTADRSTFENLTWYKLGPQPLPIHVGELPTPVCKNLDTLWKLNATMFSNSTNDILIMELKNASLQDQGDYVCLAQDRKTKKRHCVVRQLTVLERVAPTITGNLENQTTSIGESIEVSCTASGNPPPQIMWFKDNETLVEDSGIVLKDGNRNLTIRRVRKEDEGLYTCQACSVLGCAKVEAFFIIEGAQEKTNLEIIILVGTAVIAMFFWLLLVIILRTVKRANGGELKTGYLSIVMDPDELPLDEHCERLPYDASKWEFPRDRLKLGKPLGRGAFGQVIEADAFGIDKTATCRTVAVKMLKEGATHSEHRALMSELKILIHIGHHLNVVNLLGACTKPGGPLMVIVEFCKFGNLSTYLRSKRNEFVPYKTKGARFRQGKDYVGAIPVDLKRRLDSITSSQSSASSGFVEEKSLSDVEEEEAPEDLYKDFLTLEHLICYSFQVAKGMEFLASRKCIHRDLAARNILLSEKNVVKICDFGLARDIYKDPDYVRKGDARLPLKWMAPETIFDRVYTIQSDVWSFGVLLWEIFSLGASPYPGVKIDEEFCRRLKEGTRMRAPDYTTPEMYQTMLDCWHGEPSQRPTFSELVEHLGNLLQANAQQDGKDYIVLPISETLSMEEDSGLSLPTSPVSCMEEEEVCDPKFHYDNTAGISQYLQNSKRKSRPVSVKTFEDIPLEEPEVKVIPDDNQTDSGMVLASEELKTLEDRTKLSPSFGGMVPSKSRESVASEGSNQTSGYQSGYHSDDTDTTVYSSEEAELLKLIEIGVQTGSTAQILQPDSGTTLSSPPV", "assay": "Cerep LANCE kinase assay hKDR (S1 assay 32)", "format": "biochemical"}, "STC-1 cell line": {"system": "STC-1 cell line", "format": "cell-based, mouse", "details": "concentration response"}, "hJAK2": {"target": "T5, hJAK2 (Homo sapiens, UniProt O60674)", "T5 construct": "purchased Cerep (LANCE kinase assay platform, contract assay)", "T5 sequence (O60674 whole entry)": "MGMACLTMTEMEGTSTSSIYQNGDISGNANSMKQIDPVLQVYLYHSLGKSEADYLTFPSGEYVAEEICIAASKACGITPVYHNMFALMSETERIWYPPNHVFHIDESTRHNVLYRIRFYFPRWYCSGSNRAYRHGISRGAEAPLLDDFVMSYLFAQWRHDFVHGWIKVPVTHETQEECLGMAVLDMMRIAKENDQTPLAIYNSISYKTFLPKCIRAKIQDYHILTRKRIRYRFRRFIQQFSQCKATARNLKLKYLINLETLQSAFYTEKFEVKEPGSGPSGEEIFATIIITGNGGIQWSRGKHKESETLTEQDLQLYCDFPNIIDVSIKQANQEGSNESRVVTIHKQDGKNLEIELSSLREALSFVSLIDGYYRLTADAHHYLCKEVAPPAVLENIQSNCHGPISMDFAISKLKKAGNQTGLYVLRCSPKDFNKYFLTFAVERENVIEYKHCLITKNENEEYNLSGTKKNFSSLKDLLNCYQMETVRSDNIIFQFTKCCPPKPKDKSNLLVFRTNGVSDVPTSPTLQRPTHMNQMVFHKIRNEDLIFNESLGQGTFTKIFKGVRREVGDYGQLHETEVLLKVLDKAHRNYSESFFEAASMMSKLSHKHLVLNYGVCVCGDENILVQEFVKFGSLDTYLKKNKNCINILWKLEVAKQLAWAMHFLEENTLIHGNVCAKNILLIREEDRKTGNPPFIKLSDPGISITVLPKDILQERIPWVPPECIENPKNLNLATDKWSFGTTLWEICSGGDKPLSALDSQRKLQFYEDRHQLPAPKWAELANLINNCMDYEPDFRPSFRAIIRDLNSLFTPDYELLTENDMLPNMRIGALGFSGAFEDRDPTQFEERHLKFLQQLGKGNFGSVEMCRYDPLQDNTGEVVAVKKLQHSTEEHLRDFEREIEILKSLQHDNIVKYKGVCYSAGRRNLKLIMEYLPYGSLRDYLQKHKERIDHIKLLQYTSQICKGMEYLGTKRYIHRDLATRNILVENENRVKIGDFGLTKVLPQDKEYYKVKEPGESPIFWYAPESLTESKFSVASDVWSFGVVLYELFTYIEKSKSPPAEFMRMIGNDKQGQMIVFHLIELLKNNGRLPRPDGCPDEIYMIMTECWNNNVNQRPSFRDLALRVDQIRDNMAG", "assay": "Cerep LANCE kinase assay hJAK2 (S1 assay 33)", "format": "biochemical"}, "RKO": {"system": "RKO", "assay": "cells", "format": "cell-based", "details": "basal"}, "SW480": {"system": "SW480", "assay": "cells", "format": "cell-based", "details": "basal"}, "[7]": {"system": "HCT116 cells treated with a GSK3β inhibitor", "assay": "cells", "format": "cell-based", "details": "GSK3b inh pretreated"}}, "data": [{"smiles": "Nc1c2c(nc3ccccc13)CCCC2", "note": "[NCGC00015054-12]", "values": [{"measurement": "0.1mMGluc_INS1E SecretionMod Act IC50/EC50", "setting": "INS-1E cells [1]", "result": "> 33.33", "unit": "µM"}, {"measurement": "5mMGluc_INS1E SecretionMod IC50/EC50", "setting": "INS-1E cells [2]", "result": 17.6112, "unit": "µM"}]}, {"smiles": "CN(C)CC[C@@H](c1ccc(Br)cc1)c1ccccn1.O=C(O)/C=C\\C(=O)O", "note": "[NCGC00015146-11]", "values": [{"measurement": "0.1mMGluc_INS1E SecretionMod Act IC50/EC50", "setting": "INS-1E cells [1]", "result": 6.368, "unit": "µM"}, {"measurement": "5mMGluc_INS1E SecretionMod IC50/EC50", "setting": "INS-1E cells [2]", "result": 3.76, "unit": "µM"}]}, {"smiles": "c1cc(CN2CCCCC2)cc(OCCCNc2nc3ccccc3s2)c1", "note": "[NCGC00015957-06]", "values": [{"measurement": "0.1mMGluc_INS1E SecretionMod Act IC50/EC50", "setting": "INS-1E cells [1]", "result": "> 33.33", "unit": "µM"}, {"measurement": "5mMGluc_INS1E SecretionMod IC50/EC50", "setting": "INS-1E cells [2]", "result": "> 11.11", "unit": "µM"}]}, {"smiles": "NC(=NCCCCCCN=C(N)/N=C(\\N)Nc1ccc(Cl)cc1)/N=C(\\N)Nc1ccc(Cl)cc1", "note": "[NCGC00016246-09]", "values": [{"measurement": "IC50/EC50, Basal_Viability ATP DLD-1 (assay number 23)", "setting": "DLD-1", "result": 2.8031, "unit": "µM"}, {"measurement": "IC50/EC50, WntCondMedia_Alk Phos C2C12 (assay number 6)", "setting": "[3]", "result": "> 20", "unit": "µM"}, {"measurement": "IC50/EC50, hFLT3 LANCE (assay number 35)", "setting": "hFLT3", "result": "> 20", "unit": "µM"}, {"measurement": "IC50/EC50, Basal_Viability ATP HT-29 (assay number 28)", "setting": "HT-29", "result": 3.7852, "unit": "µM"}, {"measurement": "IC50/EC50, Basal_Viability ATP SNU-C1 (assay number 30)", "setting": "SNU-C1", "result": 0.4386, "unit": "µM"}, {"measurement": "IC50/EC50, Hela CellCycMod PI 2N (assay number 14)", "setting": "HeLa cells", "result": "> 10", "unit": "µM"}, {"measurement": "IC50/EC50, Hela CellCycMod PI 4N (assay number 16)", "setting": "HeLa cells", "result": "> 10", "unit": "µM"}, {"measurement": "IC50/EC50, Hela CellCycMod PI Cell Number (assay number 18)", "setting": "HeLa cells", "result": 6.7072, "unit": "µM"}, {"measurement": "IC50/EC50, Hela CellCycMod PI MI (assay number 17)", "setting": "HeLa cells", "result": "> 10", "unit": "µM"}, {"measurement": "IC50/EC50, Basal_Viability ATP HCT116 (assay number 25)", "setting": "HCT116", "result": 4.3853, "unit": "µM"}, {"measurement": "IC50/EC50, hGSK3b LANCE (assay number 34)", "setting": "hGSK3b", "result": "> 20", "unit": "µM"}, {"measurement": "IC50/EC50, VEGF_ADSC\\ECFC Angio CD31 TubeArea (assay number 2)", "setting": "[4]", "result": 1.3455, "unit": "µM"}, {"measurement": "IC50/EC50, hp70S6K1 LANCE (assay number 31)", "setting": "hp70S6K1 (RPS6KB1)", "result": "> 20", "unit": "µM"}, {"measurement": "IC50/EC50, VEGF_ADSC\\ECFC Angio Hoechst NucArea (assay number 3)", "setting": "[5]", "result": "> 10", "unit": "µM"}, {"measurement": "IC50/EC50, Basal_Viability ATP Colo 320 (assay number 27)", "setting": "Colo320", "result": 5.1631, "unit": "µM"}, {"measurement": "IC50/EC50, hNCI-H716 GLP1 Secretion (assay number 12)", "setting": "NCI-H716 cells", "result": 26.2027, "unit": "µM"}, {"measurement": "IC50/EC50, WntCondMedia_bCatenin C2C12 (assay number 5)", "setting": "[6]", "result": "> 20", "unit": "µM"}, {"measurement": "IC50/EC50, 5mMGluc_INS1E SecretionMod (assay number 8)", "setting": "INS-1E cells [2]", "result": 25.1792, "unit": "µM"}, {"measurement": "IC50/EC50, hKDR LANCE (assay number 32)", "setting": "hKDR", "result": "> 20", "unit": "µM"}, {"measurement": "IC50/EC50, mSTC-1 GLP1 Secretion (assay number 13)", "setting": "STC-1 cell line", "result": 10.3287, "unit": "µM"}, {"measurement": "IC50/EC50, hJAK2 LANCE (assay number 33)", "setting": "hJAK2", "result": "> 20", "unit": "µM"}, {"measurement": "IC50/EC50, Basal_Viability ATP RKO (assay number 29)", "setting": "RKO", "result": 4.5801, "unit": "µM"}, {"measurement": "IC50/EC50, Basal_Viability ATP SW480 (assay number 24)", "setting": "SW480", "result": 5.6664, "unit": "µM"}]}, {"smiles": "Cl.N[C@@H]1C[C@H]1c1ccccc1", "note": "[NCGC00016598-02]", "values": [{"measurement": "0.1mMGluc_INS1E SecretionMod Act IC50/EC50", "setting": "INS-1E cells [1]", "result": "> 33.33", "unit": "µM"}, {"measurement": "5mMGluc_INS1E SecretionMod IC50/EC50", "setting": "INS-1E cells [2]", "result": "> 33.33", "unit": "µM"}]}, {"smiles": "COc1cc(C(=O)OCCCN2CCCN(CCCOC(=O)c3cc(OC)c(OC)c(OC)c3)CC2)cc(OC)c1OC", "note": "[NCGC00016747-07]", "values": [{"measurement": "0.1mMGluc_INS1E SecretionMod Act IC50/EC50", "setting": "INS-1E cells [1]", "result": 18.0188, "unit": "µM"}, {"measurement": "5mMGluc_INS1E SecretionMod IC50/EC50", "setting": "INS-1E cells [2]", "result": 10.1571, "unit": "µM"}]}, {"smiles": "COC(=O)Nc1nc2ccc(Sc3ccccc3)cc2[nH]1", "note": "[NCGC00016855-10]", "values": [{"measurement": "IC50/EC50, Basal_Viability ATP DLD-1 (assay number 23)", "setting": "DLD-1", "result": 0.06726, "unit": "µM"}, {"measurement": "IC50/EC50, WntCondMedia_Alk Phos C2C12 (assay number 6)", "setting": "[3]", "result": 0.4382, "unit": "µM"}, {"measurement": "IC50/EC50, hFLT3 LANCE (assay number 35)", "setting": "hFLT3", "result": "> 20", "unit": "µM"}, {"measurement": "IC50/EC50, Basal_Viability ATP HT-29 (assay number 28)", "setting": "HT-29", "result": "> 20", "unit": "µM"}, {"measurement": "IC50/EC50, Basal_Viability ATP SNU-C1 (assay number 30)", "setting": "SNU-C1", "result": "> 20", "unit": "µM"}, {"measurement": "IC50/EC50, Hela CellCycMod PI 2N (assay number 14)", "setting": "HeLa cells", "result": 0.2042, "unit": "µM"}, {"measurement": "IC50/EC50, Hela CellCycMod PI 4N (assay number 16)", "setting": "HeLa cells", "result": 0.195, "unit": "µM"}, {"measurement": "IC50/EC50, Hela CellCycMod PI Cell Number (assay number 18)", "setting": "HeLa cells", "result": 0.0097, "unit": "µM"}, {"measurement": "IC50/EC50, Hela CellCycMod PI MI (assay number 17)", "setting": "HeLa cells", "result": 0.2276, "unit": "µM"}, {"measurement": "IC50/EC50, Hela CellCycMod PI S Phase (assay number 15)", "setting": "HeLa cells; S Phase", "result": "> 10", "unit": "µM"}, {"measurement": "IC50/EC50, GSK3b inh pretreated_Viability ATP HCT116 (assay number 26)", "setting": "[7]", "result": 0.003, "unit": "µM"}, {"measurement": "IC50/EC50, Basal_Viability ATP HCT116 (assay number 25)", "setting": "HCT116", "result": 0.001, "unit": "µM"}, {"measurement": "IC50/EC50, hGSK3b LANCE (assay number 34)", "setting": "hGSK3b", "result": "> 20", "unit": "µM"}, {"measurement": "IC50/EC50, VEGF_ADSC\\ECFC Angio CD31 TubeArea (assay number 2)", "setting": "[4]", "result": 0.2067, "unit": "µM"}, {"measurement": "IC50/EC50, hp70S6K1 LANCE (assay number 31)", "setting": "hp70S6K1 (RPS6KB1)", "result": "> 20", "unit": "µM"}, {"measurement": "IC50/EC50, VEGF_ADSC\\ECFC Angio Hoechst NucArea (assay number 3)", "setting": "[5]", "result": "> 10", "unit": "µM"}, {"measurement": "IC50/EC50, Basal_Viability ATP Colo 320 (assay number 27)", "setting": "Colo320", "result": "> 20", "unit": "µM"}, {"measurement": "IC50/EC50, hNCI-H716 GLP1 Secretion (assay number 12)", "setting": "NCI-H716 cells", "result": "> 40", "unit": "µM"}, {"measurement": "IC50/EC50, WntCondMedia_bCatenin C2C12 (assay number 5)", "setting": "[6]", "result": 4.8413, "unit": "µM"}, {"measurement": "IC50/EC50, hKDR LANCE (assay number 32)", "setting": "hKDR", "result": "> 20", "unit": "µM"}, {"measurement": "IC50/EC50, mSTC-1 GLP1 Secretion (assay number 13)", "setting": "STC-1 cell line", "result": "> 20", "unit": "µM"}, {"measurement": "IC50/EC50, hJAK2 LANCE (assay number 33)", "setting": "hJAK2", "result": "> 20", "unit": "µM"}, {"measurement": "IC50/EC50, Basal_Viability ATP RKO (assay number 29)", "setting": "RKO", "result": 0.001, "unit": "µM"}, {"measurement": "IC50/EC50, Basal_Viability ATP SW480 (assay number 24)", "setting": "SW480", "result": "> 20", "unit": "µM"}]}]}
